# Patent publication US20230123334A1, “AMINO LIPID COMPOUND, PREPARATION METHOD THEREFOR, AND APPLICATION THEREOF” (SHENZHEN SHENXIN BIOTECHNOLOGY CO., LTD., priority 2020, published 2023)
# System: HEK293 cells
# Experiment: Preliminary screening as DNA vectors, GFP transfection of HEK293 cells
# Type: cell-based
# Conditions: amino lipid/DOPE liposome with 75 ng plasmid DNA (psin-EGFP-IRES-Puro); number of GFP-expressing cells divided by total nuclei (Hoechst)
# Experimental: Cell line: HEK293 cells (ATCC CRL-1573™)
# Medium: DMEM supplemented with 10% fetal bovine serum (Invitrogen)
# Mode of screening: cell transfection on 96-well plates
# Detection (readout): percentage of the number of GFP fluorescent cells relative to the total number of cells (the total number of cells was measured using nucleus dye Hoechst—see FIG. 2). Lipofectamine2000 (Invitrogen) was used as positive control, according to the manufacturer's instructions.
# Method: an 8-channel pipette was used for sample addition. The contents shown were for a single well of a 96-well flat plate.
# 1. The compound (0.01 mmol) prepared in Example 1 was dissolved in 1 mL of anhydrous ethanol. After ultrasonically dissolved, 10 μL of the resultant amino lipid solution in ethanol was taken and mixed with 5 μL of DOPE solution in ethanol (0.01 m), and then to the obtained mixture was added 35 μL of 0.2M sodium acetate buffer (pH 5.6), and 50 μL of liposome solution was prepared by vortex at a constant rotating speed for 30 s. 4 μL was taken from the 50 μL liposome solution and added to 46 μL of 0.02M sodium acetate buffer (pH 5.6), and the final liposome solution was formed by vortex at a constant rotating speed for 30 s. 5 μL was taken from the final liposome solution and mixed with 75 ng plasmid DNA (psin-EGFP-IRES-Puro, Clontech) dissolved in 5 μL of 0.02 M sodium acetate buffer, and was allowed to stay at room temperature for 30 min to form a lipid/DNA transfection complex.
# 2. 10 μL of the lipid/DNA transfection complex was incubated at room temperature for 30 min, followed by addition of 90 μL of fresh resuspended cells (3-5×10^4 cells) and mixing with a pipette. 100 μL of cells+lipid/DNA complex was transferred to separate wells of a 96-well culture plate immediately, and placed in an incubator containing 5% CO2 at 37° C.
# 3. Hoechst33258 (Invitrogen) was added at a final concentration of 0.2 μg/mL to the cells 20 to 24 hours after initial cell transfection, and cultured in darkness at 37° C. for 15 min. Afterwards, the cells were washed once with a PBS solution, and then added with medium for culture for 20 to 24 h.
# 4. The cells were placed in a high-throughput confocal microscope (Molecular Devices ImageXpress), and four visual fields of the image of the cells were captured for each well, and images at three laser wavelengths were captured for each sample: bright field images of cells (FIG. 2(a) and FIG. 2(b)), Hoechst-staining images showing total nuclei (FIG. 2(c) and FIG. 2(d)) and GFP images showing success in transfection with the plasmid DNA and the expression of GFP (FIG. 2(e) and FIG. 2(f)). MetaXpress software was used to separately count the cells in the Hoechst-staining images and GFP images, and then the number of cells expressing GFP was divided by the total number of nuclei to give the absolute cell transfection efficiency. The absolute transfection efficiency was calculated as follows: […]
row,Compound,Absolute DNA transfection efficiency in HEK293 cells [%]
1,CCCCCCCCCCCCCCSc1nc(NCCCCCCCCCCCCC)nc(NCCCN2CCN(C)CC2)n1 [S14N13 D9],1.4
2,CCCCCCCCCCCCCCCNc1nc(NCCN(CC)CC)nc(SCCCCCCCCCCCCCC)n1 [S14N15 D7],1.1
3,CCCCCCCCCCCCCCSc1nc(NCCCN2CCOCC2)nc(SCCCCCC)n1 [S6S14 D8],2.3
4,CCCCCCCCCCCNc1nc(NCCN2CCN(C)CC2)nc(SCCCCCCCCCC)n1 [S10N11 D5],7.2
5,CCCCCCCCCNc1nc(NCC2CCN(C)CC2)nc(SCCCCCCCC)n1 [S8N9 D10],36.3
6,CCCCCCCSc1nc(NCCCCCC)nc(NCCN2CCOCC2)n1 [S7N6 D2],1.8
7,CCCCCCCCCCCCSc1nc(NCCN(C)C)nc(N(CCCCCCCCCCCC)CCCCCCCCCCCC)n1 [S12^2N12 D1],0.0
8,CCCCCCCCCCCCCNc1nc(NCCN2CCN(C)CC2)nc(SCCCCCCCCC)n1 [S9N13 D5],27.9
9,CCCCCCCCCCCCCNc1nc(NCCN2CCCCC2)nc(SCCCCCCCCC)n1 [S9N13 D4],6.7
10,CCCCCCCCCCCSc1nc(NCCN2CCCC2)nc(SCCCCCCCC)n1 [S8S11 D3],6.1
11,CCCCCCCCCCCCCCCCNc1nc(NCC2CCN(C)CC2)nc(SCCCCCCCCCC)n1 [S10N16 D10],8.7
12,CCCCCCCSc1nc(NCCN2CCN(C)CC2)nc(SCCCCCCC)n1 [S7S7 D5],4.8
13,CCCCCCCCCCCCSc1nc(NCCCN2CCOCC2)nc(SCCCCCCC)n1 [S7S12 D8],10.9
14,CCCCCCCCCCCCCCCNc1nc(NCC2CCN(C)CC2)nc(SCCCCCC)n1 [S6N15 D10],31.1
15,CCCCCCCCCCCCSc1nc(NCCCCCCCC)nc(NCCCN2CCOCC2)n1 [S12N8 D8],0.0
16,CCCCCCCCCCCCCCCSc1nc(NCCN2CCOCC2)nc(N(CCCCCCCCCCCC)CCCCCCCCCCCC)n1 [S15^2N12 D2],0.0
17,CCCCCCCCCCCCCCCCCCSc1nc(NCC2CCN(C)CC2)nc(SCCCCCCC)n1 [S7S18 D10],48.9
18,CCCCCCCCCSc1nc(NCCN2CCCC2)nc(SCCCCCCC)n1 [S7S9 D3],21.5
19,CCCCCCCCCCCCN(CCCCCCCCCCCC)c1nc(NCCCN2CCN(C)CC2)nc(SCCCCCC)n1 [S6^2N12 D9],0.4
20,CCCCCCCCCCCCCCCCCCNc1nc(NCCN2CCOCC2)nc(SCCCCCC)n1 [S6N18 D2],2.5

row,Compound,Absolute DNA transfection efficiency in HEK293 cells [%]
1,CCCCCCCCCCCCCNc1nc(NCCCN2CCN(C)CC2)nc(SCCCCCCCCCCC)n1 [S11N13 D9],4.9
2,CCCCCCCCCNc1nc(NCCN(CC)CC)nc(SCCCCCC)n1 [S6N9 D7],1.1
3,CCCCCCCCCSc1nc(NCCCCCC)nc(NCCN2CCCCC2)n1 [S9N6 D4],20.7
4,CCCCCCCCCCCCCCSc1nc(NCCN2CCOCC2)nc(SCCCCCC)n1 [S6S14 D2],11.1
5,CCCCCCCCCCCCCCSc1nc(NCCCCCCCCC)nc(NCC2CCN(C)CC2)n1 [S14N9 D10],17.6
6,CCCCCCCCCCCSc1nc(NCCCCCCCC)nc(NCCN2CCCC2)n1 [S11N8 D3],26.0
7,CCCCCCCCCCCCCCCCSc1nc(NCCCCCC)nc(NCCN(CC)CC)n1 [S16N6 D7],5.8
8,CCCCCCCCCCCCNc1nc(NCC2CCN(C)CC2)nc(SCCCCCCCC)n1 [S8N12 D10],44.5
9,CCCCCCCCCCCCCCCSc1nc(NCCCCCCCC)nc(NCCN2CCCCC2)n1 [S15N8 D4],3.0
10,CCCCCCCCCSc1nc(NCCCCCCC)nc(NCCN2CCOCC2)n1 [S9N7 D2],4.4
11,CCCCCCCCCCCCCCSc1nc(NCCCCCCC)nc(NCCN2CCN(C)CC2)n1 [S14N7 D5],16.3
12,CCCCCCCCCCCCCCCCNc1nc(NCCCN(C)C)nc(SCCCCCCCCCCCCCCC)n1 [S15N16 D6],0.0
13,CCCCCCCCNc1nc(NCCN(C)C)nc(SCCCCCCCC)n1 [S8N8 D1],9.3
14,CCCCCCCCCCCCCCCCCCNc1nc(NCCCN2CCOCC2)nc(SCCCCCCCC)n1 [S8N18 D8],5.1
15,CCCCCCCCCCSc1nc(NCCN2CCCCC2)nc(SCCCCCCCC)n1 [S8S10 D4],8.3
16,CCCCCCCSc1nc(NCCCCCC)nc(NCCN(CC)CC)n1 [S7N6 D7],11.2
17,CCCCCCCCCCCCCCCCSc1nc(NCCCCCCCCC)nc(NCCN(CC)CC)n1 [S16N9 D7],5.3
18,CCCCCCCCCCCCCCCNc1nc(NCCN2CCN(C)CC2)nc(SCCCCCCCCCCCC)n1 [S12N15 D5],0.2
19,CCCCCCCSc1nc(NCCCCCC)nc(NCCN2CCCCC2)n1 [S7N6 D4],8.7
20,CCCCCCCCCCCCCCCCCCNc1nc(NCCN2CCN(C)CC2)nc(SCCCCCCCCCCCCCCCC)n1 [S16N18 D5],0.0

row,Compound,Absolute DNA transfection efficiency in HEK293 cells [%]
1,CCCCCCCCCCCCCNc1nc(NCCCN2CCOCC2)nc(SCCCCCCCCCC)n1 [S10N13 D8],5.7
2,CCCCCCCCCCCCCCCSc1nc(NCCN2CCN(C)CC2)nc(N(CCCCCCCCCCCC)CCCCCCCCCCCC)n1 [S15^2N12 D5],0.7
3,CCCCCCCCCCCCN(CCCCCCCCCCCC)c1nc(NCCCN(C)C)nc(SCCCCCCCCCCC)n1 [S11^2N12 D6],0.3
4,CCCCCCCCCCCCCCCCCCSc1nc(NCCCN2CCN(C)CC2)nc(N(CCCCCCCCCCCC)CCCCCCCCCCCC)n1 [S18^2N12 D9],0.0
5,CCCCCCCCCCCCCCCSc1nc(NCCCCCC)nc(NCCCN2CCN(C)CC2)n1 [S15N6 D9],15.4
6,CCCCCCCCCCCCCCCSc1nc(NCCCN2CCN(C)CC2)nc(SCCCCCC)n1 [S6S15 D9],8.3
7,CCCCCCCCCCSc1nc(NCCCCCC)nc(NCCN(C)C)n1 [S10N6 D1],6.9
8,CCCCCCCCCSc1nc(NCCCCCC)nc(NCCN2CCOCC2)n1 [S9N6 D2],2.1
9,CCCCCCCNc1nc(NCCN2CCN(C)CC2)nc(SCCCCCCC)n1 [S7N7 D5],33.5
10,CCCCCCCCCCSc1nc(NCCN(C)C)nc(SCCCCCCC)n1 [S7S10 D1],21.8
11,CCCCCCCCCCSc1nc(NCCCCCC)nc(NCCN(CC)CC)n1 [S10N6 D7],6.6
12,CCCCCCCCCCCCCCCCNc1nc(NCCCN2CCN(C)CC2)nc(SCCCCCCC)n1 [S7N16 D9],12.9
13,CCCCCCCCCCSc1nc(NCCN(CC)CC)nc(SCCCCCCCC)n1 [S8S10 D7],11.4
14,CCCCCCCCCCCCCNc1nc(NCCCN2CCOCC2)nc(SCCCCCC)n1 [S6N13 D8],4.9
15,CCCCCCCCCCCCSc1nc(NCCCCCCCCCCC)nc(NCC2CCN(C)CC2)n1 [S12N11 D10],19.6
16,CCCCCCCCCSc1nc(NCCN2CCCC2)nc(SCCCCCCCC)n1 [S8S9 D3],15.1
17,CCCCCCCCCCCCN(CCCCCCCCCCCC)c1nc(NCCCN(C)C)nc(SCCCCCC)n1 [S6^2N12 D6],0.2
18,CCCCCCCCCCSc1nc(NCCN2CCN(C)CC2)nc(SCCCCCC)n1 [S6S10 D5],12.4
19,CCCCCCCCCCCCCCCSc1nc(NCCCCCCCCCCCCC)nc(NCCN2CCCCC2)n1 [S15N13 D4],0.0
20,CCCCCCCCCCCCCCCCSc1nc(NCCCCCCCCCCC)nc(NCC2CCN(C)CC2)n1 [S16N11 D10],0.0
